Laboratory results taken from patent publication US20250381242A1 (INVAIO SCIENCES, INC., priority 2024, published 2025).
Positions of bridges follow the written chain, without caps; N, C: chain ends. Residues, ends and D or L forms follow the SMILES beside them. No end group written: not given here.

Assays:
A. tumefaciens = settings: 24 h, 10 μM
E. amylovora = settings: 24 h, 10 μM
X. citri = test: Bacterial growth inhibition by OD600 absorbance, X. citri; assay type: cell-based, X. citri subsp. citri (ATCC 49118); settings: peptide 10 μM, 24 hours at 30° C., OD 600 nm
Description: (§1) Antimicrobial activity of antimicrobial peptides was tested against the agricultural microbial pests A. tumefaciens, E. amylovora, E. coli, and X. citri, using OD absorbance measurement to detect bacterial growth.
(§2) Antimicrobial peptides were synthesized using solid phase peptide synthesis method and resuspended in 10% DMSO to a 1 mM stock concentration. The stock solution was aliquoted in cryovials and stored at −80° C.
(§3) An aliquot of 198 μl of the bacterial culture was added to each well in a 96-well plate and 2 μl of a 1 mM peptide stock solution was added to each well, for a final treatment concentration of 10 μM of a given peptide. Media only wells were included to control for contamination. The positive controls were 50 μg/ml oxytetracycline hydrochloride and 500 μg/ml streptomycin sulfate. A 0.1% DMSO treatment was included as a negative control.
(§4) An initial absorbance reading of the bacterial suspensions was taken at 600 nm. Then, the bacteria were grown in an incubator at 30° C. (A. tumefaciens, E. amylovora, X. citri) or 37° C. (E. coli) for 24 hours, after which the final absorbance reading was measured. Using the initial and final absorbance reading compared to negative and positive controls, the percent inhibition of the bacterial strain by given peptide treatment was determined.

E. coli = test: Bacterial growth inhibition by OD600 absorbance, E. coli; assay type: cell-based, E. coli (DH5-alpha); settings: peptide 10 μM, 24 hours at 37° C., OD 600 nm
Description: as §1, §2, §3, §4

## C[C@@H](O)[C@H](NC(=O)[C@H](CS)NC(=O)[C@@H](N)Cc1c[nH]c2ccccc12)C(=O)N[C@@H](Cc1c[nH]c2ccccc12)C(=O)N[C@@H](CCCCN)C(=O)NCC(=O)N[C@@H](CCC(N)=O)C(=O)N1CCC[C@H]1C(=O)N[C@@H](CS)C(=O)N[C@@H](Cc1c[nH]c2ccccc12)C(=O)O [compound 3] (H-WCTWKGQPCW-OH; N-terminus and C-terminus assumed)
A. tumefaciens
  growth inhibition, A. tumefaciens: <90%
E. amylovora
  growth inhibition, E. amylovora: <90%

## CC[C@H](C)[C@H](NC(=O)[C@H](CO)NC(=O)[C@H](CC(N)=O)NC(=O)[C@H](CC(C)C)NC(=O)[C@H](Cc1ccc(O)cc1)NC(=O)[C@H](CCCCN)NC(=O)[C@H](CCCCN)NC(=O)[C@@H](NC(=O)[C@H](C)NC(=O)[C@H](CCSC)NC(=O)[C@H](CCC(N)=O)NC(=O)[C@H](CCCCN)NC(=O)[C@H](CCCNC(=N)N)NC(=O)[C@H](CC(C)C)NC(=O)[C@H](CCCNC(=N)N)NC(=O)[C@@H](NC(=O)[C@H](Cc1ccc(O)cc1)NC(=O)[C@H](CC(N)=O)NC(=O)[C@H](CC(=O)O)NC(=O)[C@@H](NC(=O)[C@H](Cc1ccccc1)NC(=O)[C@@H](NC(=O)[C@H](C)NC(=O)[C@H](CC(=O)O)NC(=O)[C@H](CO)NC(=O)[C@@H](N)Cc1c[nH]cn1)C(C)C)[C@@H](C)O)[C@@H](C)O)C(C)C)C(=O)N[C@@H](CC(C)C)C(=O)N[C@@H](CC(N)=O)C(=O)O [compound 12]
X. citri
  growth inhibition, X. citri: 93.86%
A. tumefaciens
  growth inhibition, A. tumefaciens: <90%
E. coli
  growth inhibition, E. coli: <90%
E. amylovora
  growth inhibition, E. amylovora: <90%

## CC[C@H](C)[C@H](NC(=O)CNC(=O)[C@@H]1CCCN1C(=O)CNC(=O)[C@H](CC(C)C)NC(=O)[C@H](CC(N)=O)NC(=O)[C@H](C)NC(=O)[C@H](Cc1ccccc1)NC(=O)[C@H](CC(N)=O)NC(=O)[C@H](C)NC(=O)[C@H](CCCNC(=N)N)NC(=O)[C@H](Cc1ccccc1)NC(=O)[C@H](C)NC(=O)[C@@H](NC(=O)[C@H](CCCNC(=N)N)NC(=O)[C@H](Cc1c[nH]c2ccccc12)NC(=O)[C@H](Cc1ccc(O)cc1)NC(=O)[C@H](CC(=O)O)NC(=O)[C@H](C)NC(=O)[C@H](CC(C)C)NC(=O)CN)[C@@H](C)O)C(=O)N[C@@H](CCCNC(=N)N)C(=O)N[C@@H](CS)C(=O)N[C@@H](CCCCN)C(=O)N[C@@H](CO)C(=O)N[C@@H](C)C(=O)N[C@@H](CCCNC(=N)N)C(=O)N[C@@H](CS)C(=O)O [compound 18] (H-GLADYWRTAFRANFANLGPGIRCKSARC-OH; N-terminus and C-terminus assumed)
A. tumefaciens
  growth inhibition, A. tumefaciens: <90%
E. amylovora
  growth inhibition, E. amylovora: <90%

## CC(C)C[C@H](NC(=O)[C@H](CCCCN)NC(=O)[C@H](C)NC(=O)[C@H](CC(C)C)NC(=O)[C@H](CCCCN)NC(=O)[C@H](CCCCN)NC(=O)[C@H](C)NC(=O)[C@H](CC(C)C)NC(=O)[C@H](CCCCN)NC(=O)[C@H](C)NC(=O)[C@H](CC(C)C)NC(=O)[C@H](CCCCN)NC(=O)[C@H](Cc1c[nH]cn1)NC(=O)[C@H](C)NC(=O)[C@@H](N)CC(=O)O)C(=O)N[C@@H](C)C(=O)N[C@@H](CCCCN)C(=O)O [compound 97]
X. citri
  growth inhibition, X. citri: <90%
A. tumefaciens
  growth inhibition, A. tumefaciens: <90%
E. coli
  growth inhibition, E. coli: <90%
E. amylovora
  growth inhibition, E. amylovora: <90%

## AAKAWLKLWAKAA [compound 135]
X. citri
  growth inhibition, X. citri: <90%
A. tumefaciens
  growth inhibition, A. tumefaciens: <90%
E. coli
  growth inhibition, E. coli: <90%
E. amylovora
  growth inhibition, E. amylovora: <90%

## AKLKAYPLKAKLYP [compound 114]
X. citri
  growth inhibition, X. citri: <90%
A. tumefaciens
  growth inhibition, A. tumefaciens: <90%
E. coli
  growth inhibition, E. coli: <90%
E. amylovora
  growth inhibition, E. amylovora: <90%

## AKRLKKLAKKIWKWK [compound 92]
X. citri
  growth inhibition, X. citri: <90%
A. tumefaciens
  growth inhibition, A. tumefaciens: 99.87%
E. coli
  growth inhibition, E. coli: <90%
E. amylovora
  growth inhibition, E. amylovora: 99.93%

## ALKSLLATLSKAKKKKLKTLLAALSK [compound 31]
X. citri
  growth inhibition, X. citri: 100.00%
A. tumefaciens
  growth inhibition, A. tumefaciens: 100.00%
E. coli
  growth inhibition, E. coli: <90%
E. amylovora
  growth inhibition, E. amylovora: 100.00%

## ALKSLLKTLSKAKAAKLKTLLKALSK [compound 30]
X. citri
  growth inhibition, X. citri: 100.00%
A. tumefaciens
  growth inhibition, A. tumefaciens: 100.00%
E. coli
  growth inhibition, E. coli: 98.52%
E. amylovora
  growth inhibition, E. amylovora: 100.00%

## ALWFTMLKKLGTMALHAGKAALGAAANTISQGTQ [compound 9]
X. citri
  growth inhibition, X. citri: 100.00%
A. tumefaciens
  growth inhibition, A. tumefaciens: 99.90%
E. coli
  growth inhibition, E. coli: <90%
E. amylovora
  growth inhibition, E. amylovora: 91.75%

## ALWKKLLKKLLKSAKKLG [compound 77]
X. citri
  growth inhibition, X. citri: 100.00%
A. tumefaciens
  growth inhibition, A. tumefaciens: 100.00%
E. coli
  growth inhibition, E. coli: 100.00%
E. amylovora
  growth inhibition, E. amylovora: 100.00%

## AMWKDVLKKIGTVALHAGKAALGAVADTISQ [compound 17]
X. citri
  growth inhibition, X. citri: 100.00%
A. tumefaciens
  growth inhibition, A. tumefaciens: 100.00%
E. coli
  growth inhibition, E. coli: <90%
E. amylovora
  growth inhibition, E. amylovora: <90%

## DCLSGRYKGPCAVWDNETCRRVCKEEGRSSGHCSPSLKCWCEGC (disulfide 2-44, 11-33, 19-39, 23-41) [compound 145]
A. tumefaciens
  growth inhibition, A. tumefaciens: <90%
E. amylovora
  growth inhibition, E. amylovora: <90%

## DLWNSIKDMAAAAGRAALNAVTGMVNQ [compound 29]
X. citri
  growth inhibition, X. citri: <90%
A. tumefaciens
  growth inhibition, A. tumefaciens: <90%
E. coli
  growth inhibition, E. coli: <90%
E. amylovora
  growth inhibition, E. amylovora: <90%

## FAKKLAKKLKKLAKKLAK [compound 80]
X. citri
  growth inhibition, X. citri: <90%
A. tumefaciens
  growth inhibition, A. tumefaciens: 98.82%
E. coli
  growth inhibition, E. coli: <90%
E. amylovora
  growth inhibition, E. amylovora: 100.00%

## FFHHIFRGIVHVGKTKHRLVTG [compound 37]
X. citri
  growth inhibition, X. citri: <90%
A. tumefaciens
  growth inhibition, A. tumefaciens: <90%
E. coli
  growth inhibition, E. coli: <90%
E. amylovora
  growth inhibition, E. amylovora: <90%

## FFHHIKRGIKHVGKTIHRLVTG [compound 38]
X. citri
  growth inhibition, X. citri: 100.00%
A. tumefaciens
  growth inhibition, A. tumefaciens: <90%
E. coli
  growth inhibition, E. coli: <90%
E. amylovora
  growth inhibition, E. amylovora: 100.00%

## FKKLKKLFKKILKLK [compound 95]
X. citri
  growth inhibition, X. citri: <90%
A. tumefaciens
  growth inhibition, A. tumefaciens: 99.80%
E. coli
  growth inhibition, E. coli: <90%
E. amylovora
  growth inhibition, E. amylovora: 100.00%

## FKKLKKLFSKLWNWK [compound 84]
X. citri
  growth inhibition, X. citri: <90%
A. tumefaciens
  growth inhibition, A. tumefaciens: 100.00%
E. coli
  growth inhibition, E. coli: 96.39%
E. amylovora
  growth inhibition, E. amylovora: 100.00%

## FKVQNQHGQVVKIFHH [compound 89]
X. citri
  growth inhibition, X. citri: <90%
A. tumefaciens
  growth inhibition, A. tumefaciens: <90%
E. coli
  growth inhibition, E. coli: <90%
E. amylovora
  growth inhibition, E. amylovora: <90%

## FPFLKLSLKIPKSAIKSAIKRL [compound 1]
X. citri
  growth inhibition, X. citri: <90%
A. tumefaciens
  growth inhibition, A. tumefaciens: <90%
E. coli
  growth inhibition, E. coli: <90%
E. amylovora
  growth inhibition, E. amylovora: <90%

## FQWQRNMRKVR [compound 124]
X. citri
  growth inhibition, X. citri: <90%
A. tumefaciens
  growth inhibition, A. tumefaciens: <90%
E. coli
  growth inhibition, E. coli: <90%
E. amylovora
  growth inhibition, E. amylovora: <90%

## FRIRVRVAKKFGKAFVGEIM [compound 64]
X. citri
  growth inhibition, X. citri: <90%
A. tumefaciens
  growth inhibition, A. tumefaciens: <90%
E. coli
  growth inhibition, E. coli: <90%
E. amylovora
  growth inhibition, E. amylovora: <90%

## GFWGKLWKPVKKAI [compound 107]
X. citri
  growth inhibition, X. citri: <90%
A. tumefaciens
  growth inhibition, A. tumefaciens: <90%
E. coli
  growth inhibition, E. coli: <90%
E. amylovora
  growth inhibition, E. amylovora: <90%

## GIKFFLKKLKKHI [compound 115]
X. citri
  growth inhibition, X. citri: 100.00%
A. tumefaciens
  growth inhibition, A. tumefaciens: <90%
E. coli
  growth inhibition, E. coli: <90%
E. amylovora
  growth inhibition, E. amylovora: <90%

## GLWSKIKEVGKEAAKAAAKAAGKAALGAVSEAV [compound 16]
X. citri
  growth inhibition, X. citri: 100.00%
A. tumefaciens
  growth inhibition, A. tumefaciens: 100.00%
E. coli
  growth inhibition, E. coli: 100.00%
E. amylovora
  growth inhibition, E. amylovora: 100.00%
